# What was measured:
# AMD patients [1] = conditions: high-dose atorvastatin; Vavvas et al., 2016; cited from earlier work
# AMD patients [2] = test: Fundus and OCT imaging: drusen resolution, retinal thickness and volume; assay type: in vivo, human; conditions: for Average retinal thickness / Average total volume (retina) / Retinal thickness, maximum / Retinal thickness, minimum: Patient 2, atorvastatin 80 mg/day; for OCT retinal imaging finding: Patient 5, atorvastatin 80 then 20 mg/day, April 2018 vs January 2014
# Text: (§1) The patient was asked to report any perceived changes in visual function during the course of the treatment. […] The self-reported improvement was confirmed at months 15 and 22 of treatment. […] The resolution of the drusen was confirmed by fundus photography and optical coherence tomography (OCT) imaging.
# Table 2 provides detailed information regarding patients 1 to 7, including the baseline diagnosis (diagnosis made when starting statin therapy), ending diagnosis (the diagnosis made on the date of the last referenced evaluation), the results of evaluations performed on each patient, and whether the patient responded to statin therapy. The dark adaptation data in this Example is the rod intercept time (or RI time) reported in minutes. In this Example, the dark adaptation data was collected using the AdaptDx® Dark Adaptometer (MacuLogix, Middletown, PA) running its standard Extended Test protocol. […] Data is automatically analyzed by the AdaptDx Dark Adaptometer to provide an RI time based on recovery to a criterion sensitivity level of 5×10^−3 scotopic cd/m^2. […] The visual acuity data was collected using a standard Snellen or ETDRS eye chart with the results presented using the standard 20/20 vision scale. Drusen resolution was determined by evaluation of fundus and OCT imaging by qualified clinicians experienced in AMD evaluation. Fundus and OCT imaging data was collected using the Heidelberg Engineering Spectralis® SD-OCT (Heidelberg, Germany) or the Karl Zeiss Meditec Cirrus® HD-OCT (Jena, Germany), in both cases running standard protocols with automated data analysis performed by the instruments.
# The baseline diagnosis and ending diagnosis are the result of clinical assessment by qualified clinicians experienced in evaluation of AMD patients. The clinical assessment was carried out utilizing standard ophthalmic testing, such as, but not limited to, slit-lamp biomicroscopy (including looking for evidence of drusen and pigmentary changes), fundus and OCT imaging (including looking for evidence of drusen and pigmentary changes and calculation of retinal volume and retinal thickness), and testing with a Snellen or ETDRS eye chart (including looking for visual acuity changes that might indicate a change in disease status). Dark adaptation results were not used in the clinical assessment of the baseline or ending diagnosis.
# [3] = system: patient having intermediate AMD; test: Patient self-report of perceived changes in visual function during statin treatment; assay type: in vivo, human
# Text: The patient was asked to report any perceived changes in visual function during the course of the treatment.
# as §1
smiles,measurement,setting,value
CC(C)c1c(C(=O)Nc2ccccc2)c(-c2ccccc2)c(-c2ccc(F)cc2)n1CC[C@@H](O)C[C@@H](O)CC(=O)O [atorvastatin],Patients treated with disappearance of drusen deposits and improvement in vision,AMD patients [1],43%
same,Drusen resolution,"AMD patients [2]; Example 1: adult female, intermediate AMD, oral atorvastatin increasing to 80 mg per day over six months",eventual resolution of the drusen
same,"Drusen resolution (ophthalmic examination, fundus photography, OCT)","AMD patients [2]; Example 2: adult person, intermediate AMD, oral atorvastatin 10 to 80 mg per day, month 15",substantially complete resolution of the drusen
same,Average retinal thickness,"AMD patients [2]; left eye, August 2016 OCT",193 µm
same,Average total volume (retina),"AMD patients [2]; left eye, August 2016 OCT",8.2 mm^3
same,"Retinal thickness, maximum","AMD patients [2]; left eye, August 2016 OCT",291 µm
same,"Retinal thickness, minimum","AMD patients [2]; left eye, August 2016 OCT",191 µm
same,Average retinal thickness,"AMD patients [2]; left eye, February 2016 OCT",364 µm
same,Average total volume (retina),"AMD patients [2]; left eye, February 2016 OCT",8.45 mm^3
same,"Retinal thickness, maximum","AMD patients [2]; left eye, February 2016 OCT",457 µm
same,"Retinal thickness, minimum","AMD patients [2]; left eye, February 2016 OCT",217 µm
same,Average retinal thickness,"AMD patients [2]; right eye, August 2015 OCT",179 µm
same,Average total volume (retina),"AMD patients [2]; right eye, August 2015 OCT",8.49 mm^3
same,"Retinal thickness, maximum","AMD patients [2]; right eye, August 2015 OCT",461 µm
same,"Retinal thickness, minimum","AMD patients [2]; right eye, August 2015 OCT",176 µm
same,Average retinal thickness,"AMD patients [2]; right eye, December 2015 OCT",199 µm
same,Average total volume (retina),"AMD patients [2]; right eye, December 2015 OCT",8.23 mm^3
same,"Retinal thickness, maximum","AMD patients [2]; right eye, December 2015 OCT",332 µm
same,"Retinal thickness, minimum","AMD patients [2]; right eye, December 2015 OCT",170 µm
same,OCT retinal imaging finding,"AMD patients [2]; pravastatin 20 mg/day from April 2018, left eye",development of a PED
same,OCT retinal imaging finding,"AMD patients [2]; pravastatin 20 mg/day from April 2018, right eye",increased drusen accumulation with possible increase in drusen size
same,Drusen resolution,"AMD patients [2]; Patient #1, atorvastatin 20 to 80 mg/day, OU, month 59 (June 2018)",No indication of drusen resolution OU
same,Decrease in retina volume,"AMD patients [2]; Patient #2, atorvastatin 80 mg/day, OD, month 35 (December 2015 vs August 2015)",volume of 0.26 mm^3
same,Decrease in retina volume,"AMD patients [2]; Patient #2, atorvastatin 80 mg/day, OS, month 43 (August 2016 vs February 2016)",volume of 0.25 mm^3
same,SDD resolution,"AMD patients [2]; Patient #3, atorvastatin 80 mg/day, OU, month 19 (May 2018)",No indication of SDD resolution OU
same,Drusen resolution,"AMD patients [2]; Patient #4, atorvastatin 80 mg/day, OU, month 3 (August 2018)",No indication of drusen resolution OU
same,Drusen resolution,"AMD patients [2]; Patient #5, atorvastatin 80 mg/day (suspended January 2015-February 2016), then 20 mg/day, pravastatin 20 mg/day from April 2018, OU, month 51 (April 2018)",No indication of drusen resolution OU
same,Decrease in retina volume,"AMD patients [2]; Patient #6, atorvastatin 80 mg/day, OD, month 9 (August 2018)",volume of 0.09 mm^3
same,Decrease in retina volume,"AMD patients [2]; Patient #6, atorvastatin 80 mg/day, OS, month 9 (August 2018)",volume of 0.1 mm^3
same,Drusen resolution,"AMD patients [2]; Patient #6, atorvastatin 80 mg/day, OU, month 9 (August 2018)",Initial signs of drusen resolution OU
same,Drusen resolution,"AMD patients [2]; Patient #7, atorvastatin 10 to 20 mg/day, OU, month 27 (July 2018)",No indication of drusen resolution OU
same,Self-reported change in contrast sensitivity,"[3]; Example 1: adult female, oral atorvastatin increasing to 80 mg per day over six months, no objective testing",improvement in contrast sensitivity
same,Self-reported change in dark adaptation,"[3]; Example 2: adult person, oral atorvastatin 10 to 80 mg per day for 23 months, month 7, confirmed at months 15 and 22, no objective testing",improvement in dark adaptation
